Measurements as given in ChEMBL document CHEMBL3045422, “Synthesis, characterization, and antimicrobial screening of some Mannich base sydnone derivatives” (2013).
In brackets after ≈: the same amount, converted by molar mass.

How the values were obtained:
Format in all cases: functional
Staphylococcus aureus [1] = test: microbe, parasite or virus in culture; details: read-out: IZ
Pseudomonas aeruginosa [2] = test: microbe, parasite or virus in culture; details: read-out: IZ
Pseudomonas aeruginosa [3] = test: microbe, parasite or virus in culture
Candida albicans [4] = test: microbe, parasite or virus in culture
Candida albicans [5] = test: Antifungal activity against Candida albicans at 300 ug/ml; details: read-out: IZ
Staphylococcus aureus [6] = test: microbe, parasite or virus in culture
Escherichia coli [7] = test: microbe, parasite or virus in culture; details: read-out: IZ
Bacillus subtilis [8] = test: microbe, parasite or virus in culture; details: read-out: IZ
Bacillus subtilis [9] = test: microbe, parasite or virus in culture
Escherichia coli [10] = test: microbe, parasite or virus in culture

Row | SMILES | zone of inhibition at 300 µg/mL (Staphylococcus aureus [1]) | zone of inhibition at 300 µg/mL (Pseudomonas aeruginosa [2]) | MIC (Pseudomonas aeruginosa [3]) | MIC (Candida albicans [4]) | zone of inhibition at 300 µg/mL (Candida albicans [5]) | MIC (Staphylococcus aureus [6]) | zone of inhibition at 300 µg/mL (Escherichia coli [7]) | zone of inhibition at 300 µg/mL (Bacillus subtilis [8]) | MIC (Bacillus subtilis [9]) | MIC (Escherichia coli [10])
1 | COc1ccc(NCc2c([O-])on[n+]2-c2ccc(OC)cc2)cc1 | 16 mm | 14 mm | 100 µg/mL (≈ 305 µM) | 200 µg/mL (≈ 611 µM) | 20 mm | 80 µg/mL (≈ 244 µM) | 12 mm | 18 mm | 100 µg/mL (≈ 305 µM) | 200 µg/mL (≈ 611 µM)
2 | CC1(C)S[C@@H]2[C@H](NC(=O)Cc3ccccc3)C(=O)N2[C@H]1C(=O)O [PENICILLIN G] | 45 mm | 38 mm | 0.25 µg/mL (≈ 0.748 µM) |  |  | 0.125 µg/mL (≈ 0.374 µM) | 30 mm | 35 mm | 0.25 µg/mL (≈ 0.748 µM) | 0.5 µg/mL (≈ 1.5 µM)
3 | COc1ccc(-[n+]2noc([O-])c2Cn2c(-c3ccc(Cl)cc3Cl)nc3ccccc32)cc1 | 10 mm | 12 mm | 300 µg/mL (≈ 642 µM) | 200 µg/mL (≈ 428 µM) | 16 mm | 500 µg/mL (≈ 1070 µM) | 12 mm | 10 mm | 500 µg/mL (≈ 1070 µM) | 300 µg/mL (≈ 642 µM)
4 | COc1ccc(-[n+]2noc([O-])c2Cn2c(-c3ccc(Cl)c(Cl)c3)nc3ccccc32)cc1 | 11 mm | 14 mm | 300 µg/mL (≈ 642 µM) | 200 µg/mL (≈ 428 µM) | 15 mm | 300 µg/mL (≈ 642 µM) | 13 mm | 12 mm | 200 µg/mL (≈ 428 µM) | 300 µg/mL (≈ 642 µM)
5 | COc1ccc(-[n+]2noc([O-])c2CNc2ccccc2Cl)cc1 | 12 mm | 10 mm | 500 µg/mL (≈ 1510 µM) | 300 µg/mL (≈ 904 µM) | 12 mm | 300 µg/mL (≈ 904 µM) | 12 mm | 12 mm | 300 µg/mL (≈ 904 µM) | 300 µg/mL (≈ 904 µM)
6 | COc1ccc(-[n+]2noc([O-])c2CNc2cc(Cl)ccc2Cl)cc1 | 11 mm | 10 mm | 500 µg/mL (≈ 1370 µM) | 300 µg/mL (≈ 819 µM) | 13 mm | 300 µg/mL (≈ 819 µM) | 10 mm | 12 mm | 300 µg/mL (≈ 819 µM) | 500 µg/mL (≈ 1370 µM)
7 | COc1ccc(-[n+]2noc([O-])c2Cn2c(-c3cccc(Br)c3)nc3ccccc32)cc1 | 10 mm | 10 mm | 500 µg/mL (≈ 1050 µM) | 200 µg/mL (≈ 419 µM) | 14 mm | 500 µg/mL (≈ 1050 µM) | 12 mm | 10 mm | 500 µg/mL (≈ 1050 µM) | 300 µg/mL (≈ 629 µM)
8 | COc1ccc(-c2nc3ccccc3n2Cc2c([O-])on[n+]2-c2ccc(OC)cc2)cc1 | 11 mm | 12 mm | 300 µg/mL (≈ 700 µM) | 200 µg/mL (≈ 467 µM) | 14 mm | 300 µg/mL (≈ 700 µM) | 15 mm | 12 mm | 200 µg/mL (≈ 467 µM) | 300 µg/mL (≈ 700 µM)
9 | COc1ccc(-[n+]2noc([O-])c2CNc2nc3ccc(C)cc3s2)cc1 | 15 mm | 10 mm | 500 µg/mL (≈ 1360 µM) | 100 µg/mL (≈ 271 µM) | 17 mm | 200 µg/mL (≈ 543 µM) | 12 mm | 18 mm | 60 µg/mL (≈ 163 µM) | 300 µg/mL (≈ 814 µM)
10 | COc1ccc(-[n+]2noc([O-])c2Cn2c(-c3ccccc3Br)nc3ccccc32)cc1 | 10 mm | 13 mm | 200 µg/mL (≈ 419 µM) | 200 µg/mL (≈ 419 µM) | 13 mm | 500 µg/mL (≈ 1050 µM) | 14 mm | 12 mm | 300 µg/mL (≈ 629 µM) | 200 µg/mL (≈ 419 µM)
11 | COc1ccc(-[n+]2noc([O-])c2CNc2nc3ccc(F)cc3s2)cc1 | 12 mm | 10 mm | 500 µg/mL (≈ 1340 µM) | 200 µg/mL (≈ 537 µM) | 13 mm | 300 µg/mL (≈ 806 µM) | 12 mm | 12 mm | 200 µg/mL (≈ 537 µM) | 300 µg/mL (≈ 806 µM)
12 | COc1ccc(-[n+]2noc([O-])c2CNc2ccc(Cl)cc2)cc1 | 12 mm | 13 mm | 300 µg/mL (≈ 904 µM) | 80 µg/mL (≈ 241 µM) | 18 mm | 200 µg/mL (≈ 603 µM) | 13 mm | 13 mm | 200 µg/mL (≈ 603 µM) | 300 µg/mL (≈ 904 µM)
13 | COc1ccc(-[n+]2noc([O-])c2CNc2ccccc2[N+](=O)[O-])cc1 | 11 mm | 13 mm | 200 µg/mL (≈ 584 µM) | 200 µg/mL (≈ 584 µM) | 14 mm | 300 µg/mL (≈ 876 µM) | 14 mm | 13 mm | 200 µg/mL (≈ 584 µM) | 200 µg/mL (≈ 584 µM)
14 | COc1ccc(-[n+]2noc([O-])c2CNc2ccc(C)cc2)cc1 | 13 mm | 13 mm | 200 µg/mL (≈ 642 µM) | 200 µg/mL (≈ 642 µM) | 16 mm | 200 µg/mL (≈ 642 µM) | 13 mm | 14 mm | 200 µg/mL (≈ 642 µM) | 200 µg/mL (≈ 642 µM)
15 | CCOc1ccc2nc(NCc3c([O-])on[n+]3-c3ccc(OC)cc3)sc2c1 | 14 mm | 13 mm | 200 µg/mL (≈ 502 µM) | 200 µg/mL (≈ 502 µM) | 14 mm | 200 µg/mL (≈ 502 µM) | 13 mm | 13 mm | 200 µg/mL (≈ 502 µM) | 300 µg/mL (≈ 753 µM)
16 | COc1ccc(-[n+]2noc([O-])c2CNc2nc3c([N+](=O)[O-])cccc3s2)cc1 | 27 mm | 18 mm | 100 µg/mL (≈ 250 µM) | 20 µg/mL (≈ 50.1 µM) | 32 mm | 20 µg/mL (≈ 50.1 µM) | 23 mm | 30 mm | 20 µg/mL (≈ 50.1 µM) | 40 µg/mL (≈ 100 µM)
17 | COc1ccc(-[n+]2noc([O-])c2CNc2nc3ccc(C#N)cc3s2)cc1 | 16 mm | 10 mm | 500 µg/mL (≈ 1320 µM) | 100 µg/mL (≈ 264 µM) | 17 mm | 80 µg/mL (≈ 211 µM) | 12 mm | 17 mm | 60 µg/mL (≈ 158 µM) | 300 µg/mL (≈ 791 µM)
18 | COc1ccc(-[n+]2noc([O-])c2CNc2nc3ccc(Br)cc3s2)cc1 | 18 mm | 12 mm | 200 µg/mL (≈ 462 µM) | 80 µg/mL (≈ 185 µM) | 21 mm | 100 µg/mL (≈ 231 µM) | 11 mm | 15 mm | 100 µg/mL (≈ 231 µM) | 300 µg/mL (≈ 692 µM)
19 | COc1ccc(-[n+]2noc([O-])c2CNc2nc3ccc(Cl)cc3s2)cc1 | 14 mm | 13 mm | 200 µg/mL (≈ 514 µM) | 100 µg/mL (≈ 257 µM) | 16 mm | 200 µg/mL (≈ 514 µM) | 13 mm | 15 mm | 200 µg/mL (≈ 514 µM) | 200 µg/mL (≈ 514 µM)
20 | CN[C@@H]1[C@H](O[C@H]2[C@H](O[C@H]3[C@H](O)[C@@H](O)[C@H](N=C(N)N)[C@@H](O)[C@@H]3N=C(N)N)O[C@@H](C)[C@]2(O)C=O)O[C@@H](CO)[C@H](O)[C@H]1O [STREPTOMYCIN] | 40 mm | 34 mm | 0.5 µg/mL (≈ 0.86 µM) |  |  | 0.125 µg/mL (≈ 0.215 µM) | 28 mm | 40 mm | 0.25 µg/mL (≈ 0.43 µM) | 1 µg/mL (≈ 1.72 µM)
21 | COc1ccc(-[n+]2noc([O-])c2Cn2c(-c3ccccc3[N+](=O)[O-])nc3ccccc32)cc1 | 21 mm | 10 mm | 500 µg/mL (≈ 1130 µM) | 200 µg/mL (≈ 451 µM) | 14 mm | 40 µg/mL (≈ 90.2 µM) | 14 mm | 12 mm | 300 µg/mL (≈ 677 µM) | 200 µg/mL (≈ 451 µM)
22 | COc1ccc(-[n+]2noc([O-])c2CNc2nc3cc([N+](=O)[O-])ccc3s2)cc1 | 10 mm | 10 mm | 500 µg/mL (≈ 1250 µM) | 200 µg/mL (≈ 501 µM) | 14 mm | 500 µg/mL (≈ 1250 µM) | 12 mm | 10 mm | 500 µg/mL (≈ 1250 µM) | 300 µg/mL (≈ 751 µM)
23 | COc1ccc(-[n+]2noc([O-])c2Cn2c(-c3ccc([N+](=O)[O-])cc3)nc3ccccc32)cc1 | 10 mm | 12 mm | 300 µg/mL (≈ 677 µM) | 200 µg/mL (≈ 451 µM) | 12 mm | 500 µg/mL (≈ 1130 µM) | 18 mm | 12 mm | 300 µg/mL (≈ 677 µM) | 60 µg/mL (≈ 135 µM)
24 | COc1ccc(-[n+]2noc([O-])c2CNc2nc3ccc(OC)cc3s2)cc1 | 14 mm | 14 mm | 200 µg/mL (≈ 520 µM) | 100 µg/mL (≈ 260 µM) | 15 mm | 100 µg/mL (≈ 260 µM) | 13 mm | 12 mm | 200 µg/mL (≈ 520 µM) | 200 µg/mL (≈ 520 µM)
25 | CC1(C)S[C@@H]2[C@H](NC(=O)[C@H](N)c3ccccc3)C(=O)N2[C@H]1C(=O)O [AMPICILLIN] | 30 mm | 29 mm | 100 µg/mL (≈ 286 µM) |  |  | 250 µg/mL (≈ 715 µM) | 31 mm | 26 mm | 100 µg/mL (≈ 286 µM) | 100 µg/mL (≈ 286 µM)
26 | OC(Cn1cncn1)(Cn1cncn1)c1ccc(F)cc1F [FLUCONAZOLE] |  |  |  | 100 µg/mL (≈ 327 µM) | 25 mm |  |  |  |  | 
27 | O=C(O)c1cn(C2CC2)c2cc(N3CCNCC3)c(F)cc2c1=O [CIPROFLOXACIN] | 30 mm | 23 mm |  |  |  | 50 µg/mL (≈ 151 µM) |  | 31 mm |  | 25 µg/mL (≈ 75.4 µM)
